Assay results published in EPA's ToxValDB 9.5.
Several values for one entry are separate records, joined by “and”; a condition that tells them apart may be missing. Identical values can stand only once. Each block holds one compound with its values, some of them ahead of it.

Legend:
Rattus norvegicus [1] = settings: oral; for NOAEL: drinking water
Oryctolagus sp. [2] = settings: developmental; oral; gavage; Prominent liver lobulation
Rattus norvegicus [3] = test: LD5; higher = less toxic; settings: developmental, oral, drinking water, M/F, Wistar
Oryctolagus sp. [4] = test: LD40; higher = less toxic; settings: acute; dermal; occlusive
Rattus norvegicus [5] = settings: oral; for LD50: acute
Cavia porcellus [6] = settings: uterotrophic; duration: 12 days; injection; subcutaneous; Guinea Pig; Active
Mus musculus [7] = test: FEL; higher = less toxic; settings: subchronic; inhalation; M/F; mortality
Mus musculus [8] = settings: chronic, duration: 92 days, inhalation, intermittent
Mus musculus [9] = settings: subchronic; inhalation; M/F; mortality
Rattus norvegicus [10] = settings: M/F; for LOAEL: developmental, Wistar
Mus musculus [11] = settings: chronic; duration: 2 years; oral; drinking water; M/F; B6C3F1; Hardarian gland & lung tumors (males)
Canidae = settings: short-term; duration: 22 days; oral; Beagle
Monkey = settings: chronic; duration: 363 days; oral; diet
Mus musculus [12] = settings: oral, gavage, Swiss
Rattus norvegicus [13] = settings: subchronic; duration: 90 days; oral; drinking water; Nerve: Damage
Mus musculus [14] = settings: developmental; oral; diet; M/F; Swiss-Webster; Nervous
Mus musculus [15] = settings: oral
Dog, Mouse, Rat = settings: oral; Effects on the reproductive system and developing nervous system
Bacteria = settings: In vitro / microbiological; Growth inhibition
Rattus norvegicus [16] = settings: Hershberger, duration: 10 days, oral, gavage, active + Antiandrogenic + anti-androgenic + significant increase in liver wt at 100 and greater / significant decrease in AST and increase …
Rattus norvegicus [17] = settings: developmental, oral, gavage, M, Wistar, generation: F1
Mus musculus [18] = settings: repeat dose other; oral
Chalcophaps sp. = settings: oral
Cavia porcellus [19] = settings: chronic; oral; M/F; Guinea Pig; increased relative liver weight
Cavia porcellus [20] = settings: subchronic; duration: 90 days; oral; M/F; Guinea Pig; ototoxicity
[21] = short-term, duration: 28 days, gavage, Sprague-Dawley
[22] = reproduction developmental, duration: 10 weeks, drinking water, F, Fischer 344
[23] = reproduction developmental, duration: 10 weeks, drinking water, M, Fischer 344
[24] = reproduction developmental, duration: 80 days, drinking water, Long-Evans

Compound: Cc1cc(C)[nH]c(=O)n1.O=C(Nc1ccc([N+](=O)[O-])cc1)Nc1ccc([N+](=O)[O-])cc1 [1,3-Bis(4-nitrophenyl)urea 4,6-dimethylpyrimidin-2-ol (1:1)]
NOEL (Rattus norvegicus [1]; reproduction developmental, gavage, M/F, CD/CRJ, Maternal mortality & decreased bodyweight gain & feed consumption / decreased bodyweight & various malformations in offspring): 200 mg/kg-day | NOAEL (Oryctolagus sp. [2]): 60 mg/kg-day

Compound: CCC(C)O (configuration not stated) [2-Butanol]
LD5 (Rattus norvegicus [3]): 657 mg/kg-day

Compound: N#Cc1cccnc1 [3-Pyridinecarbonitrile]
LD40 (Oryctolagus sp. [4]): ≥ 2000 mg/kg and ≤ 4000 mg/kg | LD50 (Rattus norvegicus [5]; gavage, Sprague-Dawley): 1460 mg/kg and 1480 mg/kg | LD50 (Rattus norvegicus [5]; gavage, Wistar): 1100 mg/kg | LOAEL (Rattus norvegicus [5]; [21]): 30 mg/kg-day | NOAEL (Rattus norvegicus [5]; [21]): 5 mg/kg-day

LEL (Cavia porcellus [6]): 0.1 mg/day
Compound: CC/C(=C(\c1ccc(O)cc1)c1ccc(OCCN(C)C)cc1)c1ccccc1 [4-Hydroxytamoxifen]

Compound: CC#N [Acetonitrile]
FEL (Mus musculus [7]): 672 mg/m3 | NOAEL (Mus musculus [8]; Blood: Decreased hematocrit + Erythrocytes: Decreased cell count + Liver: Hepatic lesions): 168 mg/m3 | NOAEL (Mus musculus [8]; Liver: Increased relative weight): 168 mg/m3 | NOAEL (Mus musculus [9]): 336 mg/m3

Compound: C=CC(N)=O [Acrylamide]
NOAEL (Rattus norvegicus [10]; subchronic, duration: 90 days, oral, drinking water, Fischer 344, neurological): 0.2 mg/kg-day | LOEL (Mus musculus [11]): 1.05 mg/kg-day | NOAEL (Rattus norvegicus [1]; chronic, duration: 2 years, M/F, Fischer 344, neurotoxicity): 0.67 mg/kg-day and 1.88 mg/kg-day | NOAEL (Canidae): 5 mg/kg-day | NOAEL (Monkey): ≥ 1 mg/kg-day and ≤ 3 mg/kg-day | NOAEL (Mus musculus [12]; developmental): 15 mg/kg-day | NOAEL (Mus musculus [12]; reproduction developmental, F): 2.5 mg/kg-day | NOAEL (Rattus norvegicus [5]; chronic, duration: 93 days, drinking water, Fischer 344): 0.2 mg/kg-day | NOAEL (Rattus norvegicus [5]; chronic, drinking water, Fischer 344): 0.1 mg/kg-day | NOAEL (Rattus norvegicus [5]; developmental, gavage, Sprague-Dawley / Mice: Swiss): 15 mg/kg-day | LOAEL (Rattus norvegicus [5]; [22]): 2 mg/kg-day | NOAEL (Rattus norvegicus [5]; [22]): 0.5 mg/kg-day | NOAEL (Rattus norvegicus [5]; reproduction developmental, duration: 10 weeks, drinking water, Long-Evans, generation: F0): 5 mg/kg-day | LOAEL (Rattus norvegicus [5]; [23]): 2 mg/kg-day | NOAEL (Rattus norvegicus [5]; [23]): 0.5 mg/kg-day | LOAEL (Rattus norvegicus [5]; [24]): 2.8 mg/kg-day | NOAEL (Rattus norvegicus [5]; [24]): 1.5 mg/kg-day | NOAEL (Rattus norvegicus [5]; reproduction developmental, drinking water, Fischer 344, generation: F0): 0.5 mg/kg-day | NOAEL (Rattus norvegicus [5]; reproduction developmental, drinking water, Fischer 344, generation: F1): 2 mg/kg-day | NOAEL (Rattus norvegicus [5]; reproduction developmental, drinking water, Fischer 344, generation: F2): 2 mg/kg-day | NOAEL (Rattus norvegicus [5]; reproduction developmental, gavage, F, Sprague-Dawley / Mice: Swiss): 2.5 mg/kg-day | NOAEL (Rattus norvegicus [5]; short-term, duration: 28 days, drinking water, Fischer 344): ≥ 4.1 mg/kg-day and ≤ 4.3 mg/kg-day | NOAEL (Rattus norvegicus [5]; subchronic, duration: 13 weeks, gavage, Fischer 344): 5 mg/kg-day | NOEL (Rattus norvegicus [13]): 0.2 mg/kg-day

Compound: [Al] [Aluminum]
LOAEL (mg Al/kg-day) (Mus musculus [14]): 100 | LOAEL (Mus musculus [15]; chronic, duration: 24 months, diet, M/F, Swiss-Webster, neurological): 100 mg/kg-day | NOAEL (Mus musculus [15]; developmental, duration: 364 days, diet, M/F, Swiss-Webster, neurological): 26 mg/kg-day | LOEL (Dog, Mouse, Rat): 50 mg/kg-day and 75 mg/kg-day | NOAEL (Rattus norvegicus [1]; developmental, Renal damage (hydronephrosis, urethral dilatation, obstruction and/or presence of calculi) and reduced grip strength, but not cognitive …): 30 mg/kg-day

Compound: CN[C@@H]1[C@@H](O[C@H]2O[C@H](CO)[C@@H](N)[C@H](O)[C@H]2O)O[C@H]2C[C@@H](N)[C@@H](O[C@H]3[C@H](O)[C@@H](O)[C@H](N)C[C@@H]3N)O[C@@H]2[C@@H]1O [Apramycin]
NOAEC (Bacteria): 8.3 µg/mL

Compound: CCCCC(CC)COC(=O)c1ccccc1C(=O)OCC(CC)CCCC (configuration not stated) [Di(2-ethylhexyl) phthalate]
LOEL (Rattus norvegicus [16]; Sprague-Dawley): 300 mg/kg-day and 100 mg/kg-day | LOEL (Rattus norvegicus [16]; Wistar): 300 mg/kg-day and 200 mg/kg-day | NOEL (Rattus norvegicus [16]; Wistar): 100 mg/kg-day | LOEL (Rattus norvegicus [17]; F1: AGD (mm)): 405 mg/kg-day | NOEL (Rattus norvegicus [17]; F1: AGD (mm)): 135 mg/kg-day | NOEL (Rattus norvegicus [17]; F1: Hypospadias (% litters affected) + F1: Hypospadias (litters affected incidence)): 405 mg/kg-day | LOAEL (Mus musculus [15]; developmental, duration: 20 days, gavage, F, CD1, developmental): 0.04 mg/kg-day | LOAEL (Rattus norvegicus [10]; duration: 9 weeks, inhalation, whole body): 4.79 mg/m3 | LOAEL (Rattus norvegicus [10]; duration: 12 days, oral, gavage): 1 mg/kg-day | LOAEL (Mus musculus [18]): 183 mg/kg-day | NOAEL (Mus musculus [18]): 18.3 mg/kg-day | NOAEL (Chalcophaps sp.): 1.1 mg/kg-day | LOAEL (Cavia porcellus [19]): 19 mg/kg-day

Compound: NC[C@@H]1O[C@H](O[C@H]2[C@@H](O)[C@H](O[C@@H]3[C@@H](O)[C@H](N)C[C@H](N)[C@H]3O[C@H]3O[C@H](CN)[C@@H](O)[C@H](O)[C@H]3N)O[C@@H]2CO)[C@H](N)[C@@H](O)[C@@H]1O [Neomycin]
NOEL (Cavia porcellus [20]): 6 mg/kg-day
